Reference: paper PMC9920598, “Impact of Starch Binding Domain Fusion on Activities and Starch Product Structure of 4-α-Glucanotransferase” (Molecules, 2023)

Assays:
SBDGA-TuαGT = system: T1, SBDGA-TuαGT; assay: glucose release (GOPOD), Michaelis-Menten fit; format: biochemical, Thermoproteus uzoniensis; settings: disproportionation (maltotriose donor and acceptor); 70 °C, pH 7.0, 50 mM Hepes, 150 mM NaCl; 10 nM enzyme; read-out: SBDGA-TuaGT
T1 construct: gene malQ; E. coli; 69,562 Da; with Glucoamylase (Aspergillus niger), C-terminal CBM20 domain SBDGA
From the text: glucose release (GOPOD), Michaelis-Menten fit on SBDGA-TuαGT

SBDSt1-TuαGT = system: T2, SBDSt1-TuαGT; assay: glucose release (GOPOD), Michaelis-Menten fit; format: biochemical, Thermoproteus uzoniensis; settings: disproportionation (maltotriose donor and acceptor); 70 °C, pH 7.0, 50 mM Hepes, 150 mM NaCl; 10 nM enzyme; read-out: SBDSt1-TuaGT
T2 construct: gene malQ; E. coli; 68,272 Da; with 4-alpha-glucanotransferase DPE2 (Solanum tuberosum), first CBM20 domain SBDSt1
From the text: glucose release (GOPOD), Michaelis-Menten fit on SBDSt1-TuαGT

OC[C@H]1O[C@H](O[C@H]2[C@H](O)[C@@H](O)[C@@H](O[C@H]3[C@H](O)[C@@H](O)C(O)O[C@@H]3CO)O[C@@H]2CO)[C@H](O)[C@@H](O)[C@@H]1O (some centres unmarked) [maltotriose] gave a Km (SBDGA-TuαGT) of 1400 ± 100 nM and a Km (SBDSt1-TuαGT) of 3.5 ± 0.2 µM.
